Results taken from PMC5775428, “Towards an experimental classification system for membrane active peptides” (Scientific Reports, 2018).
Read-outs that look alike come from different tables or passages of the source.

Experiments:
Xanthomonas campestris = details: for Minimum inhibitory concentration, Average: average of triplicates
Experimental: (§1) Antimicrobial activity was tested against three categories of human and plant pathogenic microorganisms: Gram-positive (Bacillus subtilis, Bacillus cereus, Staphylococcus aureus), Gram-negative (Escherichia coli, Pseudomonas aeruginosa, Erwinia carotovora, Pseudomonas syringae pv. tabaci, Xanthomonas campestris pv. citri) and yeasts (Candida albicans, Cryptococcus neoformans), as previously reported. […] The full list of peptide MICs was published in an accompanying paper, and is available in the current publication as supplementary dataset (Supplementary dataset 01).
(§2) The determination of the minimum inhibitory concentration (MIC) of peptides was performed as described in “Encrypted Antimicrobial Peptides from Plant Proteins”[7]. Briefly, MICs were determined following protocols M7-A10 and M27-A3 from Clinical & Laboratory Standards Institute (CLSI) for bacteria and yeasts, respectively. Different concentrations of IAPs (0.5 to 256 μM) were tested against several microorganisms in a final volume of 100 µL. Three biological repetitions, with 2 technical replicates each, were performed for each test, on polystyrene flat-bottom 96 wells microplates. The minimum inhibitory concentration (MIC) was defined as the concentration at which no cells were detected when visualized by optical microscopy. Please refer to the literature[7] for further details of the microbiological assays.

Cryptococcus neoformans = details: Cryptococcus neoformans; for Minimum inhibitory concentration, Average: average of triplicates
Experimental: as §1, §2

Bacillus subtilis = details: Bacillus subtilis; for Minimum inhibitory concentration, Average: average of triplicates
Experimental: as §1, §2

Erwinia carotovora = details: Erwinia carotovora; for Minimum inhibitory concentration, Average: average of triplicates
Experimental: as §1, §2

Pseudomonas aeruginosa = system: Pseudomonas aeruginosa
Experimental: as §1, §2

[1] = system: Pseudomonas syringae pv. tabaci; details: Pseudomonas syringae pv. tabaci; for Minimum inhibitory concentration, Average: average of triplicates
Experimental: as §1, §2

Candida albicans = details: Candida albicans; for Minimum inhibitory concentration, Average: average of triplicates
Experimental: as §1, §2

Staphylococcus aureus = details: Staphylococcus aureus; for Minimum inhibitory concentration, Average: average of triplicates
Experimental: as §1, §2

Escherichia coli = details: Escherichia coli; for Minimum inhibitory concentration, Average: average of triplicates
Experimental: as §1, §2

Bacillus cereus = details: Bacillus cereus; for Minimum inhibitory concentration, Average: average of triplicates
Experimental: as §1, §2

[2] = Pseudomonas aeruginosa, CLSI M7-A10, triplicate 1
[3] = Pseudomonas aeruginosa, average of triplicates
[4] = Pseudomonas aeruginosa, triplicate 2
[5] = Pseudomonas aeruginosa, triplicate 3
[6] = CLSI M27-A3, 0.5 to 256 μM tested, triplicate 1, also published in ref 7

Row | Sequence | Minimum inhibitory concentration (Xanthomonas campestris; CLSI M7-A10, triplicate 1) [µM] | Minimum inhibitory concentration, Average (Xanthomonas campestris) [µM] | Minimum inhibitory concentration (Xanthomonas campestris; triplicate 2) [µM] | Minimum inhibitory concentration (Xanthomonas campestris; triplicate 3) [µM] | Minimum inhibitory concentration (Cryptococcus neoformans; CLSI M27-A3, triplicate 1) [µM] | Minimum inhibitory concentration, Average (Cryptococcus neoformans) [µM] | Minimum inhibitory concentration (Cryptococcus neoformans; triplicate 2) [µM] | Minimum inhibitory concentration (Cryptococcus neoformans; triplicate 3) [µM] | Minimum inhibitory concentration (Bacillus subtilis; CLSI M7-A10, triplicate 1) [µM] | Minimum inhibitory concentration, Average (Bacillus subtilis) [µM] | Minimum inhibitory concentration (Bacillus subtilis; triplicate 2) [µM] | Minimum inhibitory concentration (Bacillus subtilis; triplicate 3) [µM] | Minimum inhibitory concentration (Erwinia carotovora; CLSI M7-A10, triplicate 1) [µM] | Minimum inhibitory concentration, Average (Erwinia carotovora) [µM] | Minimum inhibitory concentration (Erwinia carotovora; triplicate 2) [µM] | Minimum inhibitory concentration (Erwinia carotovora; triplicate 3) [µM] | Minimum inhibitory concentration ([1]; CLSI M7-A10, triplicate 1) [µM] | Minimum inhibitory concentration, Average [1] [µM] | Minimum inhibitory concentration ([1]; triplicate 2) [µM] | Minimum inhibitory concentration ([1]; triplicate 3) [µM] | further results
1 | GSLHGFMYRYLKNMVLNLF [Cs01] | 64 | 64.0 | 64 | 64 | 8 | 8.0 | 8 | 8 | 8 | 8.0 | 8 | 8 | 128 | 128.0 | 128 | 128 | 16 | 16.0 | 16 | 16 | Minimum inhibitory concentration (Pseudomonas aeruginosa; [2]): 32 µM; Minimum inhibitory concentration, Average (Pseudomonas aeruginosa; [3]): 32.0 µM; Minimum inhibitory concentration (Pseudomonas aeruginosa; [4]): 32 µM; Minimum inhibitory concentration (Pseudomonas aeruginosa; [5]): 32 µM; Minimum inhibitory concentration (Candida albicans; [6]): 2 µM; Minimum inhibitory concentration, Average (Candida albicans): 2.7 µM; Minimum inhibitory concentration (Candida albicans; triplicate 2): 2 µM; Minimum inhibitory concentration (Candida albicans; triplicate 3): 4 µM; Minimum inhibitory concentration (Staphylococcus aureus; CLSI M7-A10, triplicate 1): 4 µM; Minimum inhibitory concentration, Average (Staphylococcus aureus): 4.0 µM; Minimum inhibitory concentration (Staphylococcus aureus; triplicate 2): 4 µM; Minimum inhibitory concentration (Staphylococcus aureus; triplicate 3): 4 µM; Minimum inhibitory concentration (Escherichia coli; CLSI M7-A10, triplicate 1): 32 µM; Minimum inhibitory concentration, Average (Escherichia coli): 32.0 µM; Minimum inhibitory concentration (Escherichia coli; triplicate 2): 32 µM; Minimum inhibitory concentration (Escherichia coli; triplicate 3): 32 µM; Minimum inhibitory concentration (Bacillus cereus; CLSI M7-A10, triplicate 1): 64 µM; Minimum inhibitory concentration, Average (Bacillus cereus): 64.0 µM; Minimum inhibitory concentration (Bacillus cereus; triplicate 2): 64 µM; Minimum inhibitory concentration (Bacillus cereus; triplicate 3): 64 µM
2 | GLLFKELQKLIRYQIFIGK [Tc10] | 128 | 128.0 | 128 | 128 | 64 | 64.0 | 64 | 64 | 16 | 16.0 | 16 | 16 | 512 | 512.0 | 512 | 512 | 512 | 512.0 | 512 | 512 | Minimum inhibitory concentration (Pseudomonas aeruginosa): 128 µM; Minimum inhibitory concentration, Average (Pseudomonas aeruginosa): 128.0 µM; Minimum inhibitory concentration (Candida albicans; [6]): 64 µM; Minimum inhibitory concentration, Average (Candida albicans): 64.0 µM; Minimum inhibitory concentration (Candida albicans; triplicate 2): 64 µM; Minimum inhibitory concentration (Candida albicans; triplicate 3): 64 µM; Minimum inhibitory concentration (Staphylococcus aureus; CLSI M7-A10, triplicate 1): 512 µM; Minimum inhibitory concentration, Average (Staphylococcus aureus): 512.0 µM; Minimum inhibitory concentration (Staphylococcus aureus; triplicate 2): 512 µM; Minimum inhibitory concentration (Staphylococcus aureus; triplicate 3): 512 µM; Minimum inhibitory concentration (Escherichia coli; CLSI M7-A10, triplicate 1): 16 µM; Minimum inhibitory concentration, Average (Escherichia coli): 26.7 µM; Minimum inhibitory concentration (Escherichia coli; triplicate 2): 32 µM; Minimum inhibitory concentration (Escherichia coli; triplicate 3): 32 µM; Minimum inhibitory concentration (Bacillus cereus; CLSI M7-A10, triplicate 1): 512 µM; Minimum inhibitory concentration, Average (Bacillus cereus): 512.0 µM; Minimum inhibitory concentration (Bacillus cereus; triplicate 2): 512 µM; Minimum inhibitory concentration (Bacillus cereus; triplicate 3): 512 µM
3 | LHRLVKLVAALLRGYASKVDTH [Tc08] | 4 | 4.0 | 4 | 4 | 8 | 8.0 | 8 | 8 | 2 | 2.0 | 2 | 2 | 2 | 3.3 | 4 | 4 | 4 | 4.0 | 4 | 4 | Minimum inhibitory concentration (Pseudomonas aeruginosa; [2]): 4 µM; Minimum inhibitory concentration, Average (Pseudomonas aeruginosa; [3]): 4.0 µM; Minimum inhibitory concentration (Pseudomonas aeruginosa; [4]): 4 µM; Minimum inhibitory concentration (Pseudomonas aeruginosa; [5]): 4 µM; Minimum inhibitory concentration (Candida albicans; [6]): 4 µM; Minimum inhibitory concentration, Average (Candida albicans): 4.0 µM; Minimum inhibitory concentration (Candida albicans; triplicate 2): 4 µM; Minimum inhibitory concentration (Candida albicans; triplicate 3): 4 µM; Minimum inhibitory concentration (Staphylococcus aureus; CLSI M7-A10, triplicate 1): 2 µM; Minimum inhibitory concentration, Average (Staphylococcus aureus): 2.0 µM; Minimum inhibitory concentration (Staphylococcus aureus; triplicate 2): 2 µM; Minimum inhibitory concentration (Staphylococcus aureus; triplicate 3): 2 µM; Minimum inhibitory concentration (Escherichia coli; CLSI M7-A10, triplicate 1): 2 µM; Minimum inhibitory concentration, Average (Escherichia coli): 2.0 µM; Minimum inhibitory concentration (Escherichia coli; triplicate 2): 2 µM; Minimum inhibitory concentration (Escherichia coli; triplicate 3): 2 µM; Minimum inhibitory concentration (Bacillus cereus; CLSI M7-A10, triplicate 1): 4 µM; Minimum inhibitory concentration, Average (Bacillus cereus): 6.7 µM; Minimum inhibitory concentration (Bacillus cereus; triplicate 2): 8 µM; Minimum inhibitory concentration (Bacillus cereus; triplicate 3): 8 µM
